For 8 compounds, GI50 and TGI results are on record in PubChem BioAssay (NCI).

Structures are written as SMILES.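 Where inhibition never reached the appropriate level, the endpoint shown equals the highest concentration tested. Otherwise, values were interpolated linearly from a five-concentration, 48-hour dose response in 96-well plates. GI50: concentration for 50% inhibition of growth. TGI marks complete inhibition of growth.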

Test systems include HOP-62 NSCLC; 786-0 renal; K-562 leukemia; RXF 393 renal; MDA-MB-435; SF-295 CNS; SN12C renal; UACC-62 melanoma; U251 CNS; SR leukemia.
Test in all cases: DTP human tumour cell line panel, 48 h

As a reminder, the GI50 is the concentration that inhibits growth by half. By TGI is commonly meant the concentration at which net growth stops. The low end stands for greater sensitivity of the cells, the high end for lower sensitivity of the cells. Regarding `NCCCn1c2c(c3ccccc3c1=O)C(=O)c1cc3c(cc1-2)OCO3`, the GI50 is 0.278 µM in the assay with HOP-62 NSCLC; 0.241 µM in the assay with 786-0 renal; 0.2 µM in the assay with K-562 leukemia; 2.35 µM with RXF 393 renal; 1.43 µM with MDA-MB-435; 0.297 µM in the assay with SF-295 CNS. For the same compound, the GI50 in the assay with SN12C renal is 0.276 µM; in the assay on UACC-62 melanoma it was 0.0631 µM; in the assay on U251 CNS, 0.149 µM. In addition, the TGI in the assay on HOP-62 NSCLC was 12.2 µM; with 786-0 renal it was 3.1 µM; with K-562 leukemia it was 4.23 µM; in the assay on RXF 393 renal it was > 30.3 µM; in the assay with MDA-MB-435 it was 8.1 µM; with SF-295 CNS, 1.74 µM. The TGI in the assay on SN12C renal stood at 1.05 µM; in the assay on UACC-62 melanoma, 0.62 µM; in the assay with U251 CNS it was 1.52 µM.
In the case of `Cc1ccc(C)c(-n2c(-c3ccc(Br)cc3)csc2=NC(=O)c2ccccc2F)c1`, the GI50 with HOP-62 NSCLC was > 100 µM; with 786-0 renal, > 100 µM; in the assay with K-562 leukemia, 3.47 µM; in the assay on RXF 393 renal, > 100 µM; in the assay with MDA-MB-435, > 100 µM; in the assay with SF-295 CNS it was 52.4 µM. Also, the GI50 in the assay with SN12C renal, in the assay with UACC-62 melanoma and in the assay on U251 CNS was > 100 µM in each case. Besides, the total growth inhibition concentration (TGI) with HOP-62 NSCLC, with 786-0 renal, in the assay with K-562 leukemia, in the assay on RXF 393 renal, with MDA-MB-435 and in the assay on SF-295 CNS was > 100 µM in each case. Moreover, the TGI in the assay with SN12C renal, with UACC-62 melanoma and in the assay on U251 CNS was > 100 µM each time.
On to `C=C(CN1CCc2ccccc2C1)c1ccc(/C=C/C(=O)Nc2ccccc2N)cc1`, for which the GI50 in the assay with HOP-62 NSCLC was 5.17 µM; with 786-0 renal it was 3.81 µM; in the assay on K-562 leukemia, 5.49 µM; with RXF 393 renal it was 12.1 µM; with MDA-MB-435, 4.89 µM; in the assay on SF-295 CNS, 3.09 µM. Moreover, the GI50 with SN12C renal is 4.49 µM; with UACC-62 melanoma, 4.99 µM; in the assay with U251 CNS it was 3.42 µM. The concentration for total growth inhibition (TGI) in the assay with HOP-62 NSCLC was > 100 µM; with 786-0 renal, 24.4 µM; with K-562 leukemia, > 100 µM; in the assay with RXF 393 renal it was > 100 µM; in the assay with MDA-MB-435, 80.7 µM; with SF-295 CNS it was 40.6 µM. Further, the TGI in the assay on SN12C renal is 31 µM; with UACC-62 melanoma it was 22.8 µM; with U251 CNS, 27.8 µM.
On to `O=C1CC2(CCCc3sccc32)C(=O)N1` (stereo not drawn), for which the concentration for total growth inhibition (TGI) in the assay with HOP-62 NSCLC, in the assay on 786-0 renal, in the assay with K-562 leukemia, with RXF 393 renal, in the assay on MDA-MB-435 and in the assay with SF-295 CNS was > 100 µM in each case. In addition, the TGI in the assay on SN12C renal, in the assay on UACC-62 melanoma and with U251 CNS was > 100 µM each time.
With `Cc1ccc(C2=[N+]([O-])c3ccccc3C2=O)cc1`, the TGI in the assay with HOP-62 NSCLC is > 100 µM; with 786-0 renal it was 69.4 µM; in the assay on K-562 leukemia it was 41 µM; with RXF 393 renal it was 26.6 µM; in the assay with SF-295 CNS it was > 72.5 µM; with SN12C renal it was 37.8 µM. The TGI in the assay on SR leukemia was > 100 µM; in the assay on UACC-62 melanoma, 33.1 µM; in the assay with U251 CNS, 44.9 µM.
On to `O=C(Nc1ccccc1)O/N=C1/CCCC/C1=C\c1ccccc1`, for which the total growth inhibition concentration (TGI) amounted to 40.4 µM in the assay with HOP-62 NSCLC; 32.5 µM in the assay with 786-0 renal; 29.1 µM with K-562 leukemia; 32 µM in the assay with RXF 393 renal; 29.9 µM with SF-295 CNS; 31 µM in the assay on SN12C renal. For the same compound, the TGI was determined as 43.6 µM with SR leukemia, 30 µM in the assay with UACC-62 melanoma and 30.2 µM in the assay with U251 CNS.
For `N.N.NCCCCN.O=C([O-])CC(=O)[O-].O=C([O-])CC(=O)[O-].[Pt+4].[Pt+4]`, the GI50 in the assay on HOP-62 NSCLC was > 100 µM; in the assay with 786-0 renal, 57.3 µM; with K-562 leukemia it was > 100 µM; in the assay on RXF 393 renal, > 100 µM; with SF-295 CNS it was > 100 µM; with SN12C renal it was 58.5 µM. In addition, the GI50 in the assay with SR leukemia is 30.4 µM; in the assay with UACC-62 melanoma it was 77.4 µM; in the assay on U251 CNS it was 48.5 µM. Also, the concentration for total growth inhibition (TGI) in the assay on HOP-62 NSCLC, with 786-0 renal, in the assay with K-562 leukemia, with RXF 393 renal, with SF-295 CNS and in the assay on SN12C renal was > 100 µM each time. Moreover, the concentration for total growth inhibition (TGI) with SR leukemia, in the assay with UACC-62 melanoma and in the assay with U251 CNS was > 100 µM throughout.
On to `COC1CCC2C(=O)CCCC2O1` (stereo not drawn), for which the concentration for total growth inhibition (TGI) in the assay with HOP-62 NSCLC, with 786-0 renal, in the assay on K-562 leukemia, in the assay on RXF 393 renal, in the assay on SF-295 CNS and in the assay on SN12C renal was > 100 µM each time. Besides, the concentration for total growth inhibition (TGI) in the assay with SR leukemia, with UACC-62 melanoma and with U251 CNS was > 100 µM throughout.
